Results reported in US6645983B1, “Pharmaceutical compositions comprising 4-quinolones for treating cancers” (Laboratoire L. Lafon, priority 1999, dated 2003).
Like-named read-outs stand apart in the source and are kept apart here.

Tests used:
[1] = system: A-427; experiment: MTT test, cytotoxic activity on non-clonogenic cell lines; type: cell-based; details: Homo sapiens, 10^−5 M, mean value
Protocol: (§1) The principle of the MTT test is based on the mitochondrial reduction, by the metabolically active live cells, of the yellow-colored product MTT (3-(4,5-dimethylthiazol-2-yl)-2,5-diphenyltetrazolium bromide) to a blue-colored product, formazan. The amount of formazan thus obtained is directly proportional to the amount of live cells present in the culture well(s). This amount of formazan is measured by spectrophotometry.
(§2) The cell lines are maintained as a monolayer culture at 37° C. in stoppered culture dishes containing MEM 25 MM HEPES (Minimum Essential Medium) base medium. This medium is suited to the growth of a range of various mammalian diploid or primary cells. This medium is then supplemented with:
(§3) The 12 human cancer cell lines which were used were obtained from the American Type Culture Collection (ATCC, Rockville, Md., USA). These 12 cell lines are:
(§4) Experimentally, 100 μl of a cell suspension containing 20 000 to 50 000 (depending on the cell type used) cells/ml of culture medium are inoculated -in 96-well flat-bottomed multi-well plates and are left to stand in an incubator at 37° C., 5% CO2 and 70% humidity. After an incubation time of 24 hours, the culture medium is replaced with 100 μl of fresh medium containing either the various test compounds—at concentrations varying from 10^−5 to 10^−10 M—or the solvent having served for dissolving the products to be tested (control condition). […] The microplates are thus incubated for 3 hours at 37° C., then centrifuged for 10 minutes at 400 g. The yellowish solution of MTT is removed and the blue formazan crystals formed in the cell region are dissolved in 100 μl or DMSO. The microplates are then shaken for 5 minutes. […] Software incorporated in the spectrophotometer calculates the average optical density values and the standard deviation (SD) and standard error of mean (SEM) values.

[2] = system: A549; experiment: as above; type: cell-based; details: Homo sapiens, 10^−5 M, mean value
Protocol: as §1, §2, §3, §4

[3] = system: HCT-15; experiment: as above; type: cell-based; details: Homo sapiens, mean value
Protocol: as §1, §2, §3, §4

[4] = system: LoVo; experiment: as above; type: cell-based; details: Homo sapiens, 10^−5 M, mean value
Protocol: as §1, §2, §3, §4

[5] = system: MCF7; experiment: as above; type: cell-based; details: Homo sapiens, 10^−5 M, mean value
Protocol: as §1, §2, §3, §4

[6] = system: PC-3; experiment: as above; type: cell-based; details: Homo sapiens, 10^−5 M, mean value
Protocol: as §1, §2, §3, §4

[7] = system: T-47D; experiment: as above; type: cell-based; details: Homo sapiens, T47D, 10^−5 M, mean value
Protocol: as §1, §2, §3, §4

[8] = system: U-373MG; experiment: as above; type: cell-based; details: Homo sapiens, U373 MG, 10^−5 M, mean value
Protocol: as §1, §2, §3, §4

[9] = system: U-87MG; experiment: as above; type: cell-based; details: Homo sapiens, 10^−5 M, mean value
Protocol: as §1, §2, §3, §4

[10] = system: SW1088; experiment: as above; type: cell-based; details: Homo sapiens, 10^−5 M, mean value
Protocol: as §1, §2, §3
SW1088 (code ATCC: HTB-12) which is an astro-cytoma,
as §4

[11] = system: J82; experiment: as above; type: cell-based; details: Homo sapiens, 10^−5 M, mean value
Protocol: as §1, §2, §3
(§5) J82 (code ATCC: HTB-1) and T24 (code ATCC: HTB-4) which are two bladder cancers,
as §4

[12] = system: T24; experiment: as above; type: cell-based; details: Homo sapiens, T-24, 10^−5 M, mean value
Protocol: as §1, §2, §3, §5, §4

[13] = Determination of the maximum tolerated dose (MTD); details: B6D2F1/Jico, mouse, in vivo, ip; single intraperitoneal administration, doses 2.5 to 160 mg/kg, survival over 14 days
Protocol: The evaluation of the maximum tolerated dose was performed on 4- to 6-week-old B6D2F1/Jico mice. The compounds were administered intraperitoneally at increasing doses ranging from 2.5 to 160 mg/kg. The value of the MTD (expressed in mg/kg) is determined from the observation of the survival rate of the animals over a 14-day period after a single administration of the product under consideration. The change in weight of the animals is also monitored during this period. When the MTD value is greater than 160 mg/kg, the MTD value is considered as being 160 mg/kg by default.

[14] = 72 hours incubation, MTT, read-out: mean optical density, expressed as percentage relative to the mean optical density under the control condition (100%)
[15] = HCT-16, 10^−5 M, 72 hours incubation, MTT, read-out: mean optical density, expressed as percentage relative to the mean optical density under the control condition (100%)
[16] = T-47D, 72 hours incubation, MTT, read-out: mean optical density, expressed as percentage relative to the mean optical density under the control condition (100%)
[17] = U-373MG, 72 hours incubation, MTT, read-out: mean optical density, expressed as percentage relative to the mean optical density under the control condition (100%)
[18] = U-87MG, 72 hours incubation, MTT, read-out: mean optical density, expressed as percentage relative to the mean optical density under the control condition (100%)
[19] = T24, 72 hours incubation, MTT, read-out: mean optical density, expressed as percentage relative to the mean optical density under the control condition (100%)
[20] = 72 hours of incubation, control condition = 100%, read-out: mean optical density as percentage of control, A-427
[21] = 72 hours of incubation, control condition = 100%, read-out: mean optical density as percentage of control, A549
[22] = 10^−5 M, 72 hours of incubation, control condition = 100%, read-out: mean optical density as percentage of control, HCT-16
[23] = 72 hours of incubation, control condition = 100%, read-out: mean optical density as percentage of control, LoVo
[24] = 72 hours of incubation, control condition = 100%, read-out: mean optical density as percentage of control, MCF7
[25] = 72 hours of incubation, control condition = 100%, read-out: mean optical density as percentage of control, PC-3
[26] = 72 hours of incubation, control condition = 100%, read-out: mean optical density as percentage of control, T-47D
[27] = 72 hours of incubation, control condition = 100%, read-out: mean optical density as percentage of control, U-373MG
[28] = U-87 MG, 72 hours of incubation, control condition = 100%, read-out: mean optical density as percentage of control, U-87MG
[29] = 72 hours of incubation, control condition = 100%, read-out: mean optical density as percentage of control, SW1088
[30] = 72 hours of incubation, control condition = 100%, read-out: mean optical density as percentage of control, J82
[31] = 72 hours of incubation, control condition = 100%, read-out: mean optical density as percentage of control, T24

| SMILES | MTD at 14 day [13] [mg/kg] | viability at 10 µM [1, 20] [%] | viability at 10 µM [2, 21] [%] | viability at 10 µM [3, 22] [%] | viability at 10 µM [4, 23] [%] | viability at 10 µM [5, 24] [%] | viability at 10 µM [6, 25] [%] | viability at 10 µM [7, 26] [%] | viability at 10 µM [8, 27] [%] | viability at 10 µM [9, 28] [%] | viability at 10 µM [10, 29] [%] | viability at 10 µM [11, 30] [%] | viability at 10 µM [12, 31] [%] | further results |
| --- | --- | --- | --- | --- | --- | --- | --- | --- | --- | --- | --- | --- | --- | --- |
| COc1ccc(-c2cn(C)c3cc(OC)cc(NCCN(C)C)c3c2=O)cc1 [CRL8462, 5-{[(Dimethylamino)ethyl]amino}-7-methoxy-3-(4-methoxyphenyl)-1-methyl-1,4-dihydro-4-quinolinone] | > 160 | – | – | – | – | – | – | – | – | – | – | – | – | viability at 10 µM [1, 14]: 77.1%; viability at 10 µM [2, 14]: 86.8%; viability at 10 µM [3, 15]: 77.4%; viability at 10 µM [4, 14]: 84.6%; viability at 10 µM [5, 14]: 89.4%; viability at 10 µM [6, 14]: 84%; viability at 10 µM [7, 16]: 92.2%; viability at 10 µM [8, 17]: 111%; viability at 10 µM [9, 18]: 195%; viability at 10 µM [10, 14]: 105%; viability at 10 µM [11, 14]: 105%; viability at 10 µM [12, 19]: 111% |
| CC(=O)Oc1ccc(-c2cn(C)c3c(OC(C)=O)ccc(OC(C)=O)c3c2=O)cc1 [CRL8460, 5,8-Diacetoxy-3-[4-(acetoxy)phenyl]-1-methyl-1,4-dihydro-4-quinolmone acetate] | > 160 | – | – | – | – | – | – | – | – | – | – | – | – | viability at 10 µM [1, 14]: 24.9%; viability at 10 µM [2, 14]: 43.1%; viability at 10 µM [3, 15]: 53.7%; viability at 10 µM [4, 14]: 25.5%; viability at 10 µM [5, 14]: 35%; viability at 10 µM [6, 14]: 35.2%; viability at 10 µM [7, 16]: 56.2%; viability at 10 µM [8, 17]: 52.2%; viability at 10 µM [9, 18]: 71.5%; viability at 10 µM [10, 14]: 65.7%; viability at 10 µM [11, 14]: 45.7%; viability at 10 µM [12, 19]: 14.2% |
| CCOC(=O)Cn1cc(-c2ccc(OC)cc2)c(=O)c2c(OC)cc(OC)cc21 [CRL8360, Ethyl 2-[5,7-dimethoxy-3-(4-methoxyphenyl)-4-oxo-1,4-dihydro-1-quinolinyl]acetate] | > 160 | 71.3 | 85.6 | 91.8 | 98.6 | 95.3 | 81.5 | 82.1 | 88 | 97.6 | 75.1 | 81.2 | 87.5 | – |
| COc1ccc(-c2c[nH]c3ccccc3c2=O)cc1 [CRL8327, 3-(4-Methoxyphenyl)-1,4-dihydro-4-quinolinone] | > 160 | 77.5 | 71.5 | 87.5 | 47.3 | 90.7 | 87.4 | 79 | 58.7 | 89 | 99 | 85.1 | 187 | – |
| COc1ccc(-c2cn(C)c3cc(OC)cc(NCc4ccccc4)c3c2=O)cc1 [CRL8424, 5-Benzylamino-7-methoxy-3-(4-methoxyphenyl)-1-methyl-1,4-dihydro-4-quinolinone] | > 160 | 72.7 | 111 | 49.8 | 69.8 | 95.4 | 108 | 108 | 82.5 | 87.9 | 82.7 | 77.9 | 102 | – |
| COc1ccc(-c2cn(C)c3c(OC)ccc(O)c3c2=O)cc1 [CRL8392, 5-Hydroxy-8-methoxy-3-(4-methoxyphenyl)-1-methyl-1,4-dihydro-4-quinolinone] | > 160 | 49.7 | 77.6 | 77.4 | 79.7 | 74 | 51.6 | 68.6 | 90.2 | 82.7 | 89.8 | 70.6 | 63 | – |
| COc1ccc(-c2c[nH]c3cc(OC)ccc3c2=O)cc1 [CRL8358, 7-Methoxy-3-(4-methoxyphenyl)-1,4-dihydro-4-quinolinone] | > 160 | 34.5 | 55 | 89.1 | 38 | 84.1 | 89.1 | 92.1 | 41 | 80.1 | 98.3 | 92.7 | 90.7 | – |
